Experimental data reported in patent US20110110918A1, “ROLE OF (DE)ACETYLATION IN COUNTERACTING PROTEIN AGGREGATION” (Rijksuniversiteit Groningen, priority 2008, published 2011).
“Also recorded” adds a separate entry of the source.

What was measured:
Assay type in all cases: cell-based, Human
[1] = tested on: HDQ119 aggregation; assay: Filter trap assay of HDQ119 aggregation in HEK-293 cells cotransfected with EYFP-HDQ119 and DnaJB6 or DnaJB8; settings: for ability of DnaJB8 and DnaJB6 to suppress HDQ119 aggregation in presence of HDAC inhibitor: HEK-293 expressing DnaJB6 or DnaJB8 (Tet on), Trichostatin A 100 and 500 nM, Tubacin 3 and 5 μM, Niltubacin 3 and 5 μM
Protocol: Cell culture and transient infections. Flp-In T-Rex HEK293 cells (Human embryonic kidney 293) stably expressing the tetracycline (tet) repressor were obtained from Invitrogen. Cells were cultured in DMEM (Gibco) supplemented with 10% foetal bovine serum (Sigma) and 100 units/ml penicillin and 100 μg/ml streptomycin (Invitrogen). 5 μg/ml Blasticidine (Sigma) and 100 μg/ml of Zeocin (Invitrogen) were added to the cultures. Cultures were maintained at 37° C. and 5% CO2 in a humidified incubator. For transient transfections, cells were grown to 50-60% confluence in 35 mm-diameter dishes coated with 0.001% of poly-L-lysine (Sigma) and on coated coverslips for confocal microscopy analyses. Cells were transfected with a total of 1 μg of DNA using Lipofectamine (Gibco) according to the manufacturer instructions.
Plasmids. The construction of pHDQ119-EYFP driving the expression of a fragment of exon-1 of huntingtin fused to the enhanced yellow fluorescent protein was previously described (Rujano et al., 2006). The construction of the tetracycline inducible HSP overexpression plasmids is described by Hageman et al. (manuscript in preparation). Briefly, first the V5 sequence containing a Kozak initiation codon and lacking a stop codon was inserted in pcDNA5/FRT/TO by oligo cloning. Subsequently, the coding sequence of each gene was amplified and the PCR products where purified, cleaved with the respective enzymes and ligated in frame in the pcDNA5/FRT/TO-V5 vector cleaved with the same set of enzymes. Presence of the correct insert was verified using DNA sequencing. Expression of the proteins at the expected molecular mass was verified by Western Not analysis against the V5-tag.
(§1) HDAC inhibition. […] Cell extracts prepared 36 hours after treatment were processed for filter trap essays and western Notting as described before. Increase in acetylated tubulin and histones as detected by western Notting was used as test for functionality.
Cell extracts and sample preparation. 24 hours after transfection cells were recovered by trypsinization, pelleted and resuspended in 1 ml of PBS. The cell suspension was centrifuged at 6000 rpm for 5 min at RT and the pellet was resuspended in 75 μl of RIPA buffer containing 2% SDS supplemented with protease inhibitors and sonicated. Protein content was determined with the DC protein essay (Bio-RAD). Western Not samples were prepared at a final concentration of 1 μg/μl in SDS-PAGE loading buffer and heated for 5 min at 100° C. Filter trap samples were prepared at a final concentration of 100 ng/μl, 20 ng/μl and 4 ng/μl in FTA buffer (10 mM Tris-Cl pH 8.0, 150 mM NaCl and 50 mM dithiothreitol)+2% SDS and heated for 5 min at 100° C. Samples were used immediately or kept frozen at −20° C.
Filter trap assay. Filter trap assay was performed based on the protocol described by Carra et al. (2005). Briefly, 10, 2 and 0.4 μg of protein extracts were applied onto a 0.2 μm pore Cellulose Acetate membrane prewashed with FTA+0.1% SDS. Mild suction was applied and the membrane was washed 3 times with the same buffer. […] For quantitative analysis, relative intensity of the bands was measured using GelPro Analyzer 4.5 gel analyzer software.

[2] = tested on: DNAJB8; assay: Mass spectrometry of immunoprecipitated DNAJB8 from TSA-treated cells; settings: TSA-treated cells versus control sample, in-gel digestion
Protocol: Immunoprecipitation. Cells from a 35 mm dish were washed twice with PBS and lysed in 500 μl RIPA (25 mM Tris-HCl pH 7.6, 150 mM NaCl, 1% NP-40, 1% sodium deoxycholate, 0.1% SDS). Lysis was completed by passing the extracts five times through a 21-gauge needle. Subsequently, cell extracts were centrifuged twice at 10,000 G for 10 minutes at 4° C. and the supernatant transferred. Lysates were cleared with agarose A/G beads for 1 hour at 4° C. in a rotator. In the mean time, 0.5 μg V5 anti-body was incubated with […] agarose A/G plus agarose beads (Santa Cruz Biotechnology) and 50 μl RIPA for 1 hour at 4° C. Thereafter, samples were centrifuged at 1000 g for 30 seconds and the supernatant was transferred to a new tube together with 50 μl of the pre-incubated antibody and incubated for 1 more hour in a rotator. Thereafter, the beads were washed twice with RIPA and twice with PBS. After the final wash, 30 μl of RIPA was added together with 30 μl Laemmli sample buffer and boiled for 5 minutes. 10 μl of the extract was loaded and subjected for Western blot analysis.
Mass Spectometry. […]
The digested material was analyzed by nanoLC-MS/MS on an Ultimate 3000 system (Dionex, Amsterdam, The Netherlands) connected on-line with a LTQ-Orbitrap-XL mass spectrometer (ThermoFisher Scientific, San Jose, Calif.). […]

[3] = tested on: HDAC-6; assay: Western blot of acetylated tubulin as test for HDAC inhibitor functionality; settings: control cells or cells expressing DnaJB8
Protocol: as §1
Western blot analysis. […] Proteins were transferred onto nitrocellulose membranes and probed with monoclonal anti-GFP antibody GL-8 (Clontech) at a 1:5000 dilution and monoclonal anti-V5 antibody (Invitrogen) at a 1:5000 dilution. GAPDH was used a loading control and was detected with a monoclonal antibody (RDI Research Diagnostics) at 1:1000 dilution. Blots were incubated with HRP-conjugated anti-mouse secondary antibody (Amersham) at 1:5000 dilution, and visualization was made using enhanced chemiluminescence and Hyperfilm (ECL, Amersham).

Row | Molecule | DnaJB8 and DnaJB6 activity on HDQ119 aggregation ([1]; 0.5 μM TSA) | ability of DnaJB8 and DnaJB6 to suppress HDQ119 aggregation in presence of HDAC inhibitor [1] | HDQ119 aggregation in cells transfected with the empty vector ([1]; empty plasmid (FRT TO), HEK-293, different concentrations of TSA) | acetylated DNAJB8 peptides (K61, K216, K223) detected by mass spectrometry [2] | tubulin acetylation (cellular content of acetylated tubulin) [3] | suppression of poly-Q huntingtin (HDQ119) aggregation by overexpressed DnaJB8 variant ([1]; Tet on, 24 h after cotransfection, filter trap 10, 2 and 0.4 ug protein/slot)
1 | CC(/C=C/C(=O)NO)=C\[C@@H](C)C(=O)c1ccc(N(C)C)cc1 [TSA, Trichostatin A] | completely annihilated DnaJB8 and DnaJB6 activity | but not after HDAC inhibition with TSA; also recorded: stronly reduced; also recorded: concentration dependent loss of the ability of DnaJB8 and DnaJB6 to reduce HQ119 aggregation | slightly enhanced HDQ119 aggregation | 3 peaks in the TSA-treated samples that were absent in the control sample | increases the cellular content of acytelated Tubulin; also recorded: equally effective in increasing tubulin acetylation | –
2 | O=C(CCCCCCC(=O)Nc1ccc([C@H]2O[C@@H](CSc3nc(-c4ccccc4)c(-c4ccccc4)o3)C[C@@H](c3ccc(CO)cc3)O2)cc1)NO [Tubacin] | – | did not result in inhibition of DnaJB8 and DnaJB6 activity | – | – | increases the cellular content of acytelated Tubulin; also recorded: equally effective in increasing tubulin acetylation | –
3 | wild type DnaJB8: member of the Hsp40 family, chaperone counteracting protein aggregation; V5-tagged, tet-inducible overexpression (protein, UniProt Q8NHS0 1-232, looked up, V5 tag, member of the Hsp40 family, chaperone counteracting protein aggregation; V5-tagged, tet-inducible overexpression) DnaJ homolog subfamily B …: MANYYEVLGVQASASPEDIKKAYRKLALRWHPDKNPDNKEEAEKKFKLVSEAYEVLSDSKKRSLYDRAGCDSWRAGGGASTPYHSPFDTGYTFRNPEDIFREFFGGLDPFSFEFWDSPFNSDRGGRGHGLRGAFSAGFGEFPAFMEAFSSFNMLGCSGGSHTTFSSTSFGGSSSGSSGFKSVMSSTEMINGHKVTTKRIVENGQERVEVEEDGQLKSVTVNGKEQLKWMDSK | – | – | – | – | – | substantially suppressed aggregation of poly-Q huntingtin
